Laboratory results as given in patent US6683103B2, “Sulfonamides for treatment of endothelin-mediated disorders” (Texas Biotechnology Corporation, priority 1997, dated 2004).
Like-named read-outs stand apart in the source and are kept apart here.

Assays:
human ETA receptors = target: T1, human ETA receptors (Homo sapiens, UniProt P25101); experiment: Binding Test #1: inhibition of 125I-ET-1 binding to ETA receptors (TE 671 cell membranes); details: read-out: ETA
T1 construct: endogenous in cells; host or cells: TE 671 cells (ATCC HTB 139)
T1 sequence (P25101 21-427): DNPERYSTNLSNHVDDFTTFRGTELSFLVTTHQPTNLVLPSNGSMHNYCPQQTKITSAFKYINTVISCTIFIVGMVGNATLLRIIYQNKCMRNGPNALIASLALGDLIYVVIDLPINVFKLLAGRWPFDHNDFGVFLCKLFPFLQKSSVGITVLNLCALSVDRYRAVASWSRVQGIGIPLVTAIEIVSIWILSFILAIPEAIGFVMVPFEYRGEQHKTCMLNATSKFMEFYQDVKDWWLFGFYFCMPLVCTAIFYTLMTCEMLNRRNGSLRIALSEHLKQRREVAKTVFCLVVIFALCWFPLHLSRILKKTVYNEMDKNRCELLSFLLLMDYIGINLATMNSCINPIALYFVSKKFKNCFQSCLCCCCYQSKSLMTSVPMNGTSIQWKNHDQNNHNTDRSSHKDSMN
Summary of the method: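 Membranes from TE 671 cells (up to 8 μg protein) incubated with ¹²⁵I-ET-1 and compound (1 nM–100 μM final) in 30 mM HEPES pH 7.4, 150 mM NaCl, 5 mM MgCl2, 0.5% bacitracin, 16–18 h at 4 °C or alternatively at 24 °C. Nonspecific binding with 80 nM ET-1; bound pellet gamma-counted, % inhibition calculated, usually triplicate.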

human ETB receptor = target: T2, human ETB receptor (Homo sapiens, UniProt P24530); experiment: Binding Test #2: inhibition of 125I-ET-1 binding to ETB receptors (transfected COS7 cell membranes)
T2 construct: expressed in transfected cells; host or cells: COS7 cells
T2 sequence (P24530 27-442): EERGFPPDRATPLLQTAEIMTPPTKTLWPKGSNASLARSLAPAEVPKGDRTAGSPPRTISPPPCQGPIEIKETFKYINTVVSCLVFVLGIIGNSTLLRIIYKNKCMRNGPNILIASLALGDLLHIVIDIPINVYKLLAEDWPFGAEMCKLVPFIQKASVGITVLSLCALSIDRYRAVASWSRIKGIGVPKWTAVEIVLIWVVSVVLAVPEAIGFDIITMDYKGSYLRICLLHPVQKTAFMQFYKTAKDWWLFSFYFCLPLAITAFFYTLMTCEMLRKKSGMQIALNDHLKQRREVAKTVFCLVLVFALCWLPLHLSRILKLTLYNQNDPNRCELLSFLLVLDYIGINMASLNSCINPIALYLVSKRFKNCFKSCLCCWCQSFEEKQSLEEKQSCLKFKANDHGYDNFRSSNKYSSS
Summary of the method: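 Competition with 125I-ET-1 for binding to membranes from COS7 cells transfected with human ETB receptor, used at 1 μg/50 μl binding buffer. Membranes prepared in HEPES pH 7.4 with aprotinin, including a DNase/MnCl2 step at 37 °C for 30 min.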

[1] = Oral half-life and peak plasma levels in rat; type: in vivo
Source text: As used herein, bioavailability refers to the rate and extent of absorption. Methods for determining bioavailability are well known to those of skill in the art. For example, bioavailability of any of the compounds described herein can be determined empirically by administration of the compound to an animal, followed by taking blood samples over time and measuring the blood concentration of the compound. In vivo half life (t½) is defined as the time it takes for the concentration of the compound in the blood to be reduced by one-half. Estimations of the area under the curve for intravenous administration can be used to estimate the area under the curve for oral administration, yielding bioavailability data. See, e.q., Milo Gibal (1991) Biopharmaceutics and Pharmacology, 4th edition (Lea and Sediger).
Table 4 lists oral half-life, bioavailability, and in vivo activity of selected exemplary compounds. The in vivo activity was measured in a pulmonary hypertension model and is a measure of the activity of the compounds at selected dosages.

[2] = Table 1, † incubation at 24° C.
[3] = Table 1, † incubation at 24° C., read-out: ETB
[4] = Table 2, incubation at 4° C., read-out: ETB
[5] = Table 2, † incubation at 24° C.
[6] = Table 2, † incubation at 24° C., read-out: ETB

| IC50 (human ETA receptors; [2]) | IC50 (human ETB receptor; [3]) | Molecule | further results |
| --- | --- | --- | --- |
| 11 nM | 61000 nM | COc1cc(NC(=O)c2sccc2S(=O)(=O)Nc2onc(C)c2Cl)c(C(N)=O)cc1OC [N-(4-chloro-3-methyl-5-isoxazolyl)-2-(2-carboxamido-4,5-dimethoxyphenylaminocarbonyl)thiophene-3-sulfonamide] |  |
| 1.5 nM | > 100000 nM | Cc1cc(C)c(NC(=O)c2sccc2S(=O)(=O)Nc2onc(C)c2Cl)c(C)c1CC(=O)O [N-(4-chloro-3-methyl-5-isoxazolyl)-2-(3-carboxymethyl-2,4,6-trimethylphenylaminocarbonyl)thiophene-3-sulfonamide] |  |
| 230 nM | 6200 nM | Cc1noc(NS(=O)(=O)c2ccsc2C(=O)OCCc2ccc3c(c2)OCO3)c1Cl [N-(4-chloro-3-methyl-5-isoxazolyl)-2-[2-(3,4-methylenedioxyphenyl)ethoxycarbonyl-3-sulfonamide] |  |
| 0.169 nM | 12500 nM | COc1cc(C#N)c(NC(=O)c2sccc2S(=O)(=O)Nc2onc(C)c2Cl)c(OC)c1OC [N-(4-chloro-3-methyl-5-isoxazolyl)-2-[(2,3,4-trimethoxy-6-cyano)phenylaminocarbonyl]thiophene-3-sulfonamide] |  |
| 2.7 nM | 29200 nM | N-(3,4-dimethyl-5-isoxazolyl)-2-(4-tolylacetylphenyl)thiophene-3-sulfonamide |  |
| 7.3 nM | 8300 nM | N-(4-chloro-3-methyl-5-isoxazolyl)-2-[2-hyroxyproyl-4,5-(methylenedioxy)phenylaminocarbonyl]thiophene-3-sulfonamide |  |
| 20900 nM | ~100000 nM | N-(4-chloro-3-methyl-5-isoxazolyl)-2-[β-(dimethylamino)-3,4-(methylenedioxy)phenethyl]thiophene-3-sulfonamide |  |

Second part, the molecule before the results:

| Molecule | IC50 (human ETA receptors; [2]) | IC50 (human ETB receptor; [3]) | further results |
| --- | --- | --- | --- |
| CC(=O)OCc1c(C)cc(C)c(NC(=O)c2sccc2S(=O)(=O)Nc2onc(C)c2Cl)c1C [N-(4-chloro-3-methyl-5-isoxazolyl)-2-(3-acetoxymethyl-2,4,6-trimethylphenylaminocarbonyl)thiophene-3-sulfonamide] | 0.6 nM | > 100000 nM |  |
| Cc1cc(C)c(NC(=O)c2sccc2S(=O)(=O)Nc2onc(C)c2Cl)c(C)c1C#N [N-(4-chloro-3-methyl-5-isoxazolyl)-2-(3-cyano-2,4,6-trimethylphenylaminocarbonyl)thiophene-3-sulfonamide] |  |  | Peak Plasma Levels ([1]; in vivo): 20 µg/mL; POt½ in Rat ([1]; oral): 3.9 h |
| Cc1ccc(NC(=O)c2c(S(=O)(=O)Nc3onc(C)c3Cl)c3ccccc3n2C)cc1 [N-(4-chloro-3-methyl-5-isoxazolyl)-2-[(4-tolyl)aminocarbonyl]-1-methylindole-3-sulfonamide] | 31300 nM | 14700 nM |  |
| Cc1noc(NS(=O)(=O)c2ccsc2CC2(c3ccc4c(c3)OCO4)OCCO2)c1Cl [N-(4-chloro-3-methyl-5-isoxazolyl)-2-[β,β-(ethylenedioxy)-3,4-(methylenedioxy)phenethyl]thiophene-3-sulfonamide] | 128 nM | 2090 nM |  |
| Cc1noc(NS(=O)(=O)c2ccccc2-c2ccccc2)c1Cl [N-(4-chloro-3-methyl-5-isoxazolyl)-2-biphenylsulfonamide] |  |  | IC50 (human ETA receptors; Table 2, incubation at 4° C.): 1.23 nM; IC50 (human ETB receptor; [4]): ~14000 nM |
| Cc1noc(NS(=O)(=O)c2cccc(-c3ccccc3)c2)c1Cl [N-(4-chloro-3-methyl-5-isoxazolyl)-3-biphenylsulfonamide] |  |  | IC50 (human ETA receptors; Table 2, incubation at 4° C.): > 30 nM; IC50 (human ETB receptor; [4]): 793 nM; IC50 (human ETB receptor; read-out: IC50 for ETB receptors): ~793 nM |
| Cc1noc(NS(=O)(=O)c2ccc(-c3ccccc3)cc2)c1Cl [N-(4-chloro-3-methyl-5-isoxazolyl)-4-biphenylsulfonamide] |  |  | IC50 (human ETA receptors; Table 2, incubation at 4° C.): 4930 ± 3000 nM; IC50 (human ETB receptor; [4]): 290 ± 100 nM |
| CCc1ccc(-c2ccc(S(=O)(=O)Nc3onc(C)c3Cl)s2)s1 [N-(4-chloro-3-methyl-5-isoxazolyl)-5-(5-ethylthien-2-yl)thiophene-2-sulfonamide] | 12000 nM | 710 nM |  |
| COc1ccc2c(S(=O)(=O)Nc3onc(C)c3Cl)c(Cc3ccc4c(c3)OCO4)sc2c1 [N-(4-chloro-3-methyl-5-isoxazolyl)-6-methoxy-2-[3,4-(methylenedioxy)benzyl]benzo[b]thiophene-3-sulfonamide] | ~2000 nM | 2390 nM |  |
| Cc1noc(NS(=O)(=O)c2ccsc2C(=O)OC2CCCCC2)c1Cl [N-(4-chloro-3-methyl-5-isoxozolyl-2-(cyclohexyloxycarbonyl)thiophene-3-sulfonamide] | 440 nM | 34000 nM |  |
| Cc1onc(NS(=O)(=O)c2c(Cc3ccc4c(c3)OCO4)sc3ccccc23)c1Cl [N-(4-chloro-5-methyl-3-isoxazolyl)-2-[3,4-(methylenedioxy)benzyl]benzo[b]thiophene-3-sulfonamide] | 5.5 nM | 364 nM |  |
| Cc1onc(NS(=O)(=O)c2ccc(-c3ccccc3)cc2)c1Cl [N-(4-chloro-5-methyl-3-isoxazolyl)-4-biphenylsulfonamide] |  |  | IC50 (human ETA receptors; Table 2, incubation at 4° C.): 3700 nM; IC50 (human ETA receptors; [5]): 18600 nM; IC50 (human ETB receptor; [4]): 230 ± 10 nM; IC50 (human ETB receptor; [6]): 1290 nM |
| N-2-[3,4-(methylenedioxy)phenylacetyl]thiophene-3-sulfonamide | 1800 nM | 32500 nM |  |
| N-(4-bromo-3-methyl-5-isoxazolyl)-1-[3,4-(methylenedioxy)benzyl]indole-2-sulfonamide | 5290 nM | 18600 nM |  |
| N-(4-bromo-3-methyl-5-isoxazolyl)-2′-methoxyphenyl-4-biphenylsulfonamide |  |  | IC50 (human ETA receptors; Table 2, incubation at 4° C.): 3300 ± 3500 nM; IC50 (human ETB receptor; [4]): 410 ± 140 nM |
| N-(4-bromo-3-methyl-5-isoxazolyl)-3′,4′-methylenedioxyphenyl-4-biphenylsulfonamide |  |  | IC50 (human ETA receptors; [5]): 38200 ± 4950 nM; IC50 (human ETB receptor; [6]): 3000 ± 780 nM |
| N-(4-bromo-3-methyl-5-isoxazolyl)-3′-methoxyphenyl-4-biphenylsulfonamide |  |  | IC50 (human ETA receptors; Table 2, incubation at 4° C.): 4970 ± 3400 nM; IC50 (human ETA receptors; [5]): 163000 ± 7140 nM; IC50 (human ETB receptor; [4]): 660 ± 250 nM; IC50 (human ETB receptor; [6]): 2080 ± 230 nM |
| N-(4-bromo-3-methyl-5-isoxazolyl)-4′-methoxyphenyl-4-biphenylsulfonamide |  |  | IC50 (human ETA receptors; Table 2, incubation at 4° C.): 14700 ± 5600 nM; IC50 (human ETA receptors; [5]): 122000 ± 2120 nM; IC50 (human ETB receptor; [4]): 1150 ± 440 nM |
| N-(4-bromo-3-methyl-5-isoxazolyl)-4′-methylphenyl-4-biphenylsulfonamide |  |  | IC50 (human ETA receptors; Table 2, incubation at 4° C.): 14500 ± 9600 nM; IC50 (human ETA receptors; [5]): 22200 ± 3770 nM; IC50 (human ETB receptor; [4]): 46 ± 44 nM; IC50 (human ETB receptor; [6]): 168 ± 3.2 nM |
| N-(4-bromo-3-methyl-5-isoxazolyl)-4′-trifluorophenyl-4-biphenylsulfonamide |  |  | IC50 (human ETA receptors; Table 2, incubation at 4° C.): 5400 ± 300 nM; IC50 (human ETA receptors; [5]): 25900 ± 13700 nM; IC50 (human ETB receptor; [4]): 83 ± 20 nM; IC50 (human ETB receptor; [6]): 710 ± 430 nM |
| N-(4-bromo-5-methyl-3-isoxazolyl)-5-(4-methylphenyl)thiophene-2-sulfonamide | 15800 nM | 250 nM | IC50 (human ETA receptors; Table 1, incubation at 4° C.): 7100 nM; IC50 (human ETB receptor; Table 1, incubation at 4° C., read-out: ETB): 359 nM |
| N-(4-chloro-3-methyl-5-isoxazolyl)-2-[2-methyl-4,5-(methylenedioxy)phenylhydroxyimino]thiophene-3-sulfonamide | 794 nM | 6490 nM |  |
| N-(4-chloro-3-methyl-5-isoxazolyl)-2-[β-acetoxy-2-methyl-4,5-(methylenedioxy)styryl]thiophene-3-sulfonamide |  | 3740 nM | IC50 (human ETA receptors; Table 1, incubation at 4° C.): 5.44 nM |
| N-(4-chloro-3-methyl-5-isoxazolyl)-2-phenylbenzo[b]thiophene sulfonamide | 932 nM | 46800 nM |  |
